This is an account of results in patent US20170007700A1, “COMPOSITIONS AND METHODS FOR BORON NEUTRON CAPTURE THERAPY” (THE CURATORS OF THE UNIVERSITY OF MISSOURI, priority 2014, published 2017).

The data set is described as follows: Metabolic transformation of TAC and MAC in vivo (MALDI-MS of mouse urine). Also on record: species or system mice. The settings on record: for metabolic degradation in vivo: mice given TAC/MAC liposomes. An excerpt:
One of the components of in vivo biodistribution study of TAC/MAC liposomes in mice was identification of any metabolic transformation of either TAC or MAC in the body. Metabolic degradation of TAC was not observed in vivo. […] Three main metabolites of MAC were identified in mouse urine by matrix-assisted laser desorption […] mass spectrometry (MALDI-MS) analysis and are illustrated in FIG. 4.

Regarding Na3[1-(2′-B10H9)-2-NH3B10H8] [TAC], the “metabolic degradation in vivo” value is “not observed”.

Regarding K[nido-7-CH3(CH2)15-7,8-C2B9H11] [MAC], the “metabolic degradation in vivo” value is recorded as “expelled without change”. The “main metabolites identified in mouse urine” value (MALDI-MS) was “Three”.
